In patent US20240199558A1, “2,4,6-TRISUBSTITUTED 1,3,5-TRIAZINES AS MODULATORS OF CX3CR1” (ASTRAZENECA AB, priority 2022, published 2024):

Biological target: CX3CR1 (Homo sapiens (Human), UniProt P49238)
Test: hCX3CR1 [3H]-AZD8797 competitive binding assay (filter)
Details: CHO-hCX3CR1 membranes, 2 nM [3H]-AZD8797
Method: hCX3CR1 [^3H]-AZD8797 Competitive Binding Assay (Filter)
CHO-hCX3CR1 membranes (9 μg per well) together with 2 nM [^3H]-AZD8797 and different concentrations of competitor compound were incubated in 25 mM HEPES (pH 7.4), 10 mM MgCl2, 1 mM CaCl2) and 0.5% BSA in a Corning polystyrene flat-bottom 96-well plate. The plate was incubated for 2 h at room temperature before free radioligand was separated from bound by vacuum filtration on to a Multiscreen HTS+HiFlow FB (Millipore) filter plate, using a Biomek FX (Beckman Coulter). The filter plate was washed in ice-cold 25 mM HEPES (pH 7.4), 5 mM MgCl2, 1 mM CaCl2) and 500 mM NaCl and dried at 50° C. for 1 h. Scintillation cocktail, Optiphase Supermix (PerkinElmer) was added to each well and the radioactivity was measured using a MicroBeta Trilux reader (PerkinElmer). The DMSO concentration was held constant at 1%.

Sequence of CX3CR1 (P49238 whole entry): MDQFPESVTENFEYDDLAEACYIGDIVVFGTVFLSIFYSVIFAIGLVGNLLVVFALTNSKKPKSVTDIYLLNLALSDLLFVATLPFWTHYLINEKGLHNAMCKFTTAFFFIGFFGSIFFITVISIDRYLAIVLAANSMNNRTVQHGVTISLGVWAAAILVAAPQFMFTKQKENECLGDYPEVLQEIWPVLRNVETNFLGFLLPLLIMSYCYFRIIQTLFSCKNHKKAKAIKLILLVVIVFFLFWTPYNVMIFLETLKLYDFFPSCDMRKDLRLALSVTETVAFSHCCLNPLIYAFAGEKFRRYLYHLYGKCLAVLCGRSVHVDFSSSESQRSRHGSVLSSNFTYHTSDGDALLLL

SMILES | IC50 [nM]
CC(C)C[C@H](CO)Nc1nc(CC(C)c2ccc(OC(C)C)c(F)c2)nc(NS(C)(=O)=O)n1 (stereo partly drawn) [Example 140, N-(4-(2-(3-Fluoro-4-isopropoxyphenyl)propyl)-6-(((R)-1-hydroxy-4-methylpentan-2-yl)amino)-1,3,5-triazin-2-yl)methanesulfonamide] | 175
CC(C)C[C@H](CO)Nc1nc(CC(C)c2ccc(CO)c(F)c2)nc(NS(C)(=O)=O)n1 (stereo partly drawn) [Example 133, N-(4-(2-(3-Fluoro-4-(hydroxymethyl)phenyl)propyl)-6-(((R)-1-hydroxy-4-methylpentan-2-yl)amino)-1,3,5-triazin-2-yl)methanesulfonamide] | 26
COc1cc(C)c([C@@H](C)Cc2nc(N[C@@H](CO)CC(C)C)nc(NS(C)(=O)=O)n2)cn1 (single isomer, unassigned) [Example 14, N-(4-(((R)-1-Hydroxy-4-methylpentan-2-yl)amino)-6-((S*)-2-(6-methoxy-4-methylpyridin-3-yl)propyl)-1,3,5-triazin-2-yl)methanesulfonamide] | > 10000
CC(C)C[C@H](CO)Nc1nc(CC(C)c2cccc(C3(O)CC3)c2)nc(NS(C)(=O)=O)n1 (stereo partly drawn) [Example 158, N-(4-(((R)-1-Hydroxy-4-methylpentan-2-yl)amino)-6-(2-(3-(1-hydroxycyclopropyl)phenyl)propyl)-1,3,5-triazin-2-yl)methanesulfonamide] | 2700
COc1cccc(C(C)Cc2nc(N[C@@H](CO)CC(C)C)nc(NS(C)(=O)=O)n2)c1O (stereo partly drawn) [Example 139, N-(4-(2-(2-Hydroxy-3-methoxyphenyl)propyl)-6-(((R)-1-hydroxy-4-methylpentan-2-yl)amino)-1,3,5-triazin-2-yl)methanesulfonamide] | 469
CC(C)C[C@H](CO)Nc1nc(CC(C)c2ccc(F)c(C#N)c2)nc(NS(C)(=O)=O)n1 (stereo partly drawn) [Example 161] | 1250
CC(C)C[C@H](CO)Nc1nc(CC(C)c2ccc3c(c2)oc(=O)n3C)nc(NS(C)(=O)=O)n1 (stereo partly drawn) [Example 100, N-(4-(((R)-1-Hydroxy-4-methylpentan-2-yl)amino)-6-(2-(3-methyl-2-oxo-2,3-dihydrobenzo[d]oxazol-6-yl)propyl)-1,3,5-triazin-2-yl)methanesulfonamide] | 160
CC(=O)N(C)c1ccc(C(C)Cc2nc(N[C@@H](CO)CC(C)C)nc(NS(C)(=O)=O)n2)cc1 (stereo partly drawn) [Example 73, N-(4-(1-(4-(((R)-1-Hydroxy-4-methylpentan-2-yl)amino)-6-(methylsulfonamido)-1,3,5-triazin-2-yl)propan-2-yl)phenyl)-N-methylacetamide] | 633
CC(C)C[C@H](CO)Nc1nc(CC(C)c2cc(Cl)ccc2O)nc(NS(C)(=O)=O)n1 (stereo partly drawn) [Example 107, N-(4-(2-(5-Chloro-2-hydroxyphenyl)propyl)-6-(((R)-1-hydroxy-4-methylpentan-2-yl)amino)-1,3,5-triazin-2-yl)methanesulfonamide] | 113
CC(C)C[C@H](CO)Nc1nc(CC(C)c2ccc(CCO)nc2)nc(NS(C)(=O)=O)n1 (stereo partly drawn) [Example 132, N-(4-(((R)-1-Hydroxy-4-methylpentan-2-yl)amino)-6-(2-(6-(2-hydroxyethyl)pyridin-3-yl)propyl)-1,3,5-triazin-2-yl)methanesulfonamide] | 264
COc1cc(F)c([C@@H](C)Cc2nc(N[C@@H](CO)CC(C)C)nc(NS(C)(=O)=O)n2)cn1 (single isomer, unassigned) [Example 45, N-(4-((S*)-2-(4-Fluoro-6-methoxypyridin-3-yl)propyl)-6-(((R)-1-hydroxy-4-methylpentan-2-yl)amino)-1,3,5-triazin-2-yl)methanesulfonamide] | 765
CC(C)C[C@H](CO)Nc1nc(CC(C)c2cccc3c(=O)n(C)cnc23)nc(NS(C)(=O)=O)n1 (stereo partly drawn) [Example 109, N-(4-(((R)-1-Hydroxy-4-methylpentan-2-yl)amino)-6-(2-(3-methyl-4-oxo-3,4-dihydroquinazolin-8-yl)propyl)-1,3,5-triazin-2-yl)methanesulfonamide] | 84
